# Laboratory results as given in ChEMBL document CHEMBL1201862, “PubChem BioAssay data set” (2004).
# Calls of active or inactive are those of the source.
# Legend:
# [1] = system: Vero; assay: Vero cell cytotoxicity, cytotoxicity control for flavivirus capping enzyme inhibitors (AID 588742); type: functional; settings: Chlorocebus sabaeus
# [2] = target: T1, Corticotropin-releasing factor receptor 2/Corticotropin-releasing factor-binding protein (Homo sapiens, UniProt P24387+Q13324); assay: Dose Response confirmation of uHTS hits for small molecule antagonists of the CRF-binding protein and CRF-R2 receptor complex.; type: functional; settings: read-out: IC50_Mean
# T1 sequence (Q13324 whole entry): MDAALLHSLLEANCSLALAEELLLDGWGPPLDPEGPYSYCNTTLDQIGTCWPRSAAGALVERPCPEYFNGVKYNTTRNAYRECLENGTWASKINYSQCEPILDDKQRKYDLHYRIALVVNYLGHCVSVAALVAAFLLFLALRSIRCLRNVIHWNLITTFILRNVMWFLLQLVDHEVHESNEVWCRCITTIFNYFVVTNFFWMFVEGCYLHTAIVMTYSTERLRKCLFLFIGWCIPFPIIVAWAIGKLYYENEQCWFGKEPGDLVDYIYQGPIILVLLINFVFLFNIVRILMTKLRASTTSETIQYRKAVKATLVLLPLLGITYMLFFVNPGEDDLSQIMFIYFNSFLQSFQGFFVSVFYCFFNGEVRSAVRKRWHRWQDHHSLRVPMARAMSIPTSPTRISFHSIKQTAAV
# T1 sequence (P24387 whole entry): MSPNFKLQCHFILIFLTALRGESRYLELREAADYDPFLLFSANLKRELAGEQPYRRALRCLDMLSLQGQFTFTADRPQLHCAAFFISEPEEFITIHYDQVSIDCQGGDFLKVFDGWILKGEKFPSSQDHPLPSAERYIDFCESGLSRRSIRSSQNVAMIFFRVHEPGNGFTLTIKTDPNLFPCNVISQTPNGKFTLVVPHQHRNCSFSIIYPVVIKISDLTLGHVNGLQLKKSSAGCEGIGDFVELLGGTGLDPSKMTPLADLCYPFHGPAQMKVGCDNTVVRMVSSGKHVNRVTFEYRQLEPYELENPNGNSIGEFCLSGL
# [3] = target: T1, Corticotropin-releasing factor receptor 2/Corticotropin-releasing factor-binding protein; assay: activators of CRF receptor 2 with binding protein – uHTS hits, confirmation (AID 602473); type: functional; settings: read-out: EC50_Mean
# [4] = target: T2, Replicative DNA helicase DnaB (Mycobacterium tuberculosis, UniProt P9WMR3); assay: DnaB intein splicing inhibitors, dose response, biochemical, cell-free fluorescence (AID 449749); type: functional
# T2 sequence (P9WMR3 whole entry): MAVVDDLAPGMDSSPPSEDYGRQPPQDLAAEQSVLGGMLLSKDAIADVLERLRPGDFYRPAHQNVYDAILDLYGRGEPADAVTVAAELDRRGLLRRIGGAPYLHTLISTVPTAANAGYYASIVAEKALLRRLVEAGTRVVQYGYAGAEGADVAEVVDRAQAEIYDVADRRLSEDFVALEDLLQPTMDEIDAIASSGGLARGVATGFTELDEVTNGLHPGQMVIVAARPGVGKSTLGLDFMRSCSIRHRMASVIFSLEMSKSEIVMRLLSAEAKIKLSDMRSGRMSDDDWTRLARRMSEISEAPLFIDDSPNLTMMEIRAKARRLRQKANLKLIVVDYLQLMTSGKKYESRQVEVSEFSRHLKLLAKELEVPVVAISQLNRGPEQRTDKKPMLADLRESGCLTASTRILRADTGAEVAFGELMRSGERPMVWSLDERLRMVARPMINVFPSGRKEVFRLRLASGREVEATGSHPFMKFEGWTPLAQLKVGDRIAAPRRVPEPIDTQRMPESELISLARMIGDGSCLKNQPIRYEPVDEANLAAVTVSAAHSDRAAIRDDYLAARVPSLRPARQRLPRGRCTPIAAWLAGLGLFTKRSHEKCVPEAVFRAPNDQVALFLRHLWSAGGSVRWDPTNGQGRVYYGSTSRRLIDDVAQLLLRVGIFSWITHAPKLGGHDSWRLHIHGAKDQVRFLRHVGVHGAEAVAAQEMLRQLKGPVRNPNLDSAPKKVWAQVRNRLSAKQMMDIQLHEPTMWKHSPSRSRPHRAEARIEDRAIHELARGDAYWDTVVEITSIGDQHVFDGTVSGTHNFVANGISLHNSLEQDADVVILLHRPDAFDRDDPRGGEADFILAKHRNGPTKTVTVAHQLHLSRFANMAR
# [5] = target: T3, Protein RecA (Mycobacterium tuberculosis, UniProt P9WHJ3); assay: Fluorescence Cell-Free Homogeneous Dose Retest to Identify Inhibitors of RecA-Intein Splicing Activity. [Related pubchem assays (depositor defined):AID2097, AID2223, AID489010, AID492950]; type: functional
# T3 sequence (P9WHJ3 whole entry): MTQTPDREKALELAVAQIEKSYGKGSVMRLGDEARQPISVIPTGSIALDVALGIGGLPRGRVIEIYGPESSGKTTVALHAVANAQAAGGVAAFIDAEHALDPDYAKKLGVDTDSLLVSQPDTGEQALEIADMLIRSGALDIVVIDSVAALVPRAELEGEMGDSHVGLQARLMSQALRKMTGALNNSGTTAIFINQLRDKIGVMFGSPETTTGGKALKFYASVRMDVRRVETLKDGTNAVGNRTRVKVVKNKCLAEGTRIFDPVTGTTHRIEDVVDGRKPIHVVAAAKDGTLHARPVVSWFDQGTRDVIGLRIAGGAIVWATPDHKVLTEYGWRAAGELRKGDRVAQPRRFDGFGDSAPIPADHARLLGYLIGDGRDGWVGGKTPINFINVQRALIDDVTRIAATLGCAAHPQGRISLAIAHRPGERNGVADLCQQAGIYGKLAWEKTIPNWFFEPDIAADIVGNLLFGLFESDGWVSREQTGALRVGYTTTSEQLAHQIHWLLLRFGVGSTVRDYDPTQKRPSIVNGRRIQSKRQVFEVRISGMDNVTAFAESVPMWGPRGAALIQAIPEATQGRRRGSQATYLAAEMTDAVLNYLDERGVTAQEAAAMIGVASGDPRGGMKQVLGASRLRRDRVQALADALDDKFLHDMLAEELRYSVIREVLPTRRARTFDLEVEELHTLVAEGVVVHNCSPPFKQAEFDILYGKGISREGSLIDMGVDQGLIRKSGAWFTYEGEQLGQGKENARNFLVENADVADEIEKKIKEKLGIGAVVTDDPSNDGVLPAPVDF
# [6] = target: Genome polyprotein (dengue virus type 2, UniProt P29990); assay: Dengue-2 NS5 methyltransferase inhibitors, primary screen, biochemical, confirmation dose response (AID 588689); type: functional
# Sequence of Genome polyprotein (P29990 2492-3391 limits assumed): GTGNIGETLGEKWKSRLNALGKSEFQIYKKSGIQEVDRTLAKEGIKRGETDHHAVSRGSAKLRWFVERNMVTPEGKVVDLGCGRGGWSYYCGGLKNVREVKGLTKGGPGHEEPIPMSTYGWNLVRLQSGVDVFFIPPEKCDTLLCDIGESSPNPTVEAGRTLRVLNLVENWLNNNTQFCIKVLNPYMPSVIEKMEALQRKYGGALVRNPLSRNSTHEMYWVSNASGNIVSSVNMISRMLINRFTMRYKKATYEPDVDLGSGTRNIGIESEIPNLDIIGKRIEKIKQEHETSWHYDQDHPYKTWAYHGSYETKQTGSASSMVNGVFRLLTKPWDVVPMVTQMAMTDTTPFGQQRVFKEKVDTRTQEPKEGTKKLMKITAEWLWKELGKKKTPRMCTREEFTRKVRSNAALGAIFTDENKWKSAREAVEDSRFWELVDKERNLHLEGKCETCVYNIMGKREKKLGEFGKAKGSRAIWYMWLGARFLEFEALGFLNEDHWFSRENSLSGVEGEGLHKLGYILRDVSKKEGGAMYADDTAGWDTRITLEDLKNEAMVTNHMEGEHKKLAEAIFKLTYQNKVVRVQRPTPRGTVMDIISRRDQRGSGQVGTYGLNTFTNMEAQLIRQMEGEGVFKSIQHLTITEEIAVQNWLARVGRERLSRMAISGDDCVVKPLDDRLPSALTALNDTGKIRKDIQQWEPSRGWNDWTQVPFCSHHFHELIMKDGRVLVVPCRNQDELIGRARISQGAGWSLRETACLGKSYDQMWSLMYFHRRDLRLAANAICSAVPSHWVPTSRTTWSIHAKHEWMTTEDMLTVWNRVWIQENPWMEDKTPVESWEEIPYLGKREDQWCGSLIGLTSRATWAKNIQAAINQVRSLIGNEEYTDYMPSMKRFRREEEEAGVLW
# [7] = target: T4, Carboxy-terminal domain RNA polymerase II polypeptide A small phosphatase 1 (Homo sapiens, UniProt Q9GZU7); assay: inhibitors of CTDSP1, concentration-response testing, biochemical assay, absorbance-based, actives from ultra-high-throughput screening (AID 540297); type: functional
# T4 sequence (Q9GZU7 whole entry): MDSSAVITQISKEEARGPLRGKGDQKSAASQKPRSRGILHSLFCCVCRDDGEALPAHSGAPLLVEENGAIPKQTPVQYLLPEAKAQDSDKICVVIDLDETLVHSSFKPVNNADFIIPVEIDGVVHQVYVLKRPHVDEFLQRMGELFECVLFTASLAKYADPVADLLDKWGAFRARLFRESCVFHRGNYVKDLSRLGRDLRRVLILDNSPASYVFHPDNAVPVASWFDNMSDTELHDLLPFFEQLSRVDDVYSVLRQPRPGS
# [8] = growth suppression of PTEN-null colon cells, dose response, cell-based, HCT116 PTEN knockout (AID 1047); type: functional;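 note: HCT116 colon tumor cells with PTEN knocked out; cells exposed to compound for 60 hours before readout; potency for loss of cell viability measured by luminescence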
# [9] = growth suppression of beta-catenin-knockout colon cells, dose response, cell-based, HCT116, human colon tumor (AID 1045); type: functional;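 note: HCT116 colon tumor cells with beta catenin knocked out; cells exposed to compound for 60 hours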
# [10] = target: T5, Ubiquitin-conjugating enzyme E2 N (Homo sapiens, UniProt P61088); type: functional;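 note: Dose-response confirmation in a TR-FRET assay detecting UBC13-driven polyubiquitin chain formation, inhibition measured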
# T5 sequence (P61088 whole entry): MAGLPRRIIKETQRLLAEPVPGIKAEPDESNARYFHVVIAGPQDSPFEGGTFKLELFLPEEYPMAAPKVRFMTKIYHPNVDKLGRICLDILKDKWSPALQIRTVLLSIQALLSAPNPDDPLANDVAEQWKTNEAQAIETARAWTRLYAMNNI
# [11] = Luminescence Cell-Based Dose Confirmation HTS to Identify Activators of 5'UTR Stem-Loop Driven Alpha-Synuclein mRNA Translation in H4 Neuroglioblastoma Cells. [Related pubchem assays: 1829 (Project Summary), 1814 (Primary HTS)]; type: functional
# [12] = Luminescence Cell-Based Dose Response HTS to Identify Activators of Luciferase Translation or Activity in H4 […] Cells. [Related pubchem assays: 1829 (Project Summary), 1814 (Primary HTS)]; type: functional
# [13] = system: H4; assay: Luminescence Cell-Based Dose Response HTS to Identify Activators of 5'UTR Stem-Loop Driven Prion Protein mRNA Translation in H4 Neuroglioblastoma Cells. [Related pubchem assays: 1829 (Project Summary), 1814 (Primary HTS)]; type: functional; settings: Homo sapiens
# [14] = target: Glyceraldehyde-3-phosphate dehydrogenase (Homo sapiens, UniProt P04406)
# Sequence of Glyceraldehyde-3-phosphate dehydrogenase (P04406 whole entry, the tested form may be a part): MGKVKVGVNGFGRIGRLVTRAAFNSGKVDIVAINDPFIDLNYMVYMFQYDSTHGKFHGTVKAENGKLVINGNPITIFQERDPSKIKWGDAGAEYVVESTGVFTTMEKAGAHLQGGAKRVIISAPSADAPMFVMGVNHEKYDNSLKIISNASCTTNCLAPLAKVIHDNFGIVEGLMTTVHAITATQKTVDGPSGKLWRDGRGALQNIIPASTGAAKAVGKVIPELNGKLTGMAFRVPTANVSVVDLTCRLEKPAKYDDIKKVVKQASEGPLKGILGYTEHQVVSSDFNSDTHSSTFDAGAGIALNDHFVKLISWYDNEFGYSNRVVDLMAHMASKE
# [15] = target: T6, RNA-binding protein pos-1 (Caenorhabditis elegans, UniProt G5EF15); assay: inhibitors of POS-1/mex-3 RNA binding, dose response, biochemical, fluorescence polarization (AID 1964);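 note: purified POS-1 fused to maltose binding protein made in E. coli; potency of compounds blocking POS-1 binding to fluorescent RNA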
# T6 sequence (G5EF15 whole entry): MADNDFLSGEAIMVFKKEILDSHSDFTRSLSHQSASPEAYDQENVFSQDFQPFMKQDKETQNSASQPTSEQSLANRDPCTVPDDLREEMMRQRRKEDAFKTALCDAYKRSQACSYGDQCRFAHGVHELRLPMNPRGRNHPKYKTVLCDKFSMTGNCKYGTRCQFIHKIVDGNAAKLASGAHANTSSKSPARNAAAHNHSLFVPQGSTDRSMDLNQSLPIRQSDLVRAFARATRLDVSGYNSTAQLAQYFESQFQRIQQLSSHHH
# [16] = target: T7, Zinc finger protein mex-5 (Caenorhabditis elegans, UniProt Q9XUB2); assay: MEX-5/TCR-2 RNA interaction inhibitors, dose response, biochemical, C. elegans, fluorescence polarization (AID 1960)
# T7 sequence (Q9XUB2 whole entry): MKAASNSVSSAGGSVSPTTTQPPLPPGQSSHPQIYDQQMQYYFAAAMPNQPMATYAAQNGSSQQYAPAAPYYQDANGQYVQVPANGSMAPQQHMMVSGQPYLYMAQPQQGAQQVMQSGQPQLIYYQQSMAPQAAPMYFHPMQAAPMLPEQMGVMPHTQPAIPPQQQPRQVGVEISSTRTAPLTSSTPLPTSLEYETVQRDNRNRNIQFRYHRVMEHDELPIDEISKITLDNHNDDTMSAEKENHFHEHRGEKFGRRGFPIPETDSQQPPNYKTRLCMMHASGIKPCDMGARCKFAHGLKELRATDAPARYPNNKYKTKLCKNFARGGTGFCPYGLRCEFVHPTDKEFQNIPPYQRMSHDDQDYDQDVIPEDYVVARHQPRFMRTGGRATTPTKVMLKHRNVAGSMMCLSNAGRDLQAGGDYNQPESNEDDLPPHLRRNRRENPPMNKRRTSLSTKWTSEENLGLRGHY
# [17] = THP-1 cell cytotoxicity, dose response, cytotoxicity control for Vif-APOBEC3G degradation inhibitor project, THP-1 cells (AID 1117359); type: functional; settings: Human immunodeficiency virus 1, THP-1
smiles,measurement,setting,value
CC1=NN(C(N)=S)C(=O)C1N=Nc1cccc(Cl)c1C (stereo unspecified),CC50,[1],> 40 µM (active)
COC(=O)c1cc(OC)c(OC)cc1NC(=O)C(C)Sc1ccc(C)cc1 (stereo unspecified),IC50,[2],> 47.1 µM (inactive)
same,EC50,[3],> 53 µM (inactive)
CCOc1ccc(/C=C2\SC(=S)N(CCC(=O)Nc3ccccc3C(=O)O)C2=O)cc1,AC50,[4],6.1 µM (active)
same,EC50,[5],15.1 µM (active)
same,IC50,[6],29.3 µM (active)
same,IC50,[7],4.86 µM (active)
CC1(C)CC2=NC3=C(C(=O)c4ccccc43)C(c3ccc(Cl)cc3)C2=C(O)C1 (stereo unspecified),EC50,[8],13.1 µM (active)
same,EC50,[9],13.8 µM (active)
same,IC50,[10],> 20 µM (inactive)
COc1cccc(NC(=O)COC(=O)c2c(F)cccc2Cl)c1,EC50,[11],66.8 µM (active)
same,EC50,[12],16.1 µM (active)
same,EC50,[13],20.2 µM (active)
NS(=O)(=O)c1ccc(NC(=O)COc2ccccc2)cc1,IC50,[14],> 100 µM (not active)
CC1CCC(NC(=O)C2CCN(c3c4c(nc5ncnn35)CCC4)CC2)CC1 (stereo unspecified),EC50,[11],48.6 µM (active)
same,EC50,[12],64.8 µM (active)
same,EC50,[13],22.3 µM (active)
CC(=O)c1ccc(NC(=O)CCc2nnc3ccc(N4CCC5(CC4)OCCO5)nn23)cc1,IC50,[2],> 47.1 µM (inactive)
same,EC50,[3],> 53 µM (inactive)
COc1ccc(NC(=O)C(Sc2ccccc2)c2ccccc2)c(OC)c1 (stereo unspecified),IC50,[2],> 47.1 µM (inactive)
same,EC50,[3],> 53 µM (inactive)
c1ccc(CN2CCC(NC3=NN=C(c4ccc5c(c4)OCCO5)CS3)CC2)cc1,EC50,[11],12.5 µM (active)
same,EC50,[12],> 120 µM (not active)
same,EC50,[13],48.5 µM (active)
CCCC(C(=O)NC(C)(C)C)N(Cc1ccccc1Cl)C(=O)c1snc(C(N)=O)c1N (stereo unspecified),IC50,[10],> 20 µM (inactive)
CCC(C)/C=C(C)/C=C/C1=CC2=C(Cl)C(=O)C(C)(OC(C)=O)C(=O)C2=CO1 (stereo unspecified),EC50,[15],> 300 µM (not active)
same,EC50,[11],> 120 µM (not active)
same,EC50,[12],> 120 µM (not active)
same,EC50,[13],> 120 µM (not active)
same,EC50,[16],> 300 µM (not active)
same,CC50,[1],> 40 µM (active)
same,IC50,[6],38 µM (active)
COc1cc(C(=O)Nc2cccc(S(=O)(=O)N3CCCC3)c2)cc(OC)c1C,IC50,[10],> 20 µM (inactive)
COc1ccccc1NC(=O)CSc1nnc(CNC(=O)c2ccco2)o1,IC50,[2],> 47.1 µM (inactive)
same,EC50,[3],> 53 µM (inactive)
O=C(Nc1cccc(S(=O)(=O)N2CCCCC2)c1)c1ccc(S(=O)(=O)C(F)F)cc1,IC50,[2],> 47.1 µM (inactive)
same,EC50,[3],> 53 µM (inactive)
Cc1ccc(S(=O)(=O)N2[C@@H](c3ccc(Br)cc3)C(C(=O)O)=C[C@H]2CC2CCCC2)cc1,CC50,[1],> 40 µM (active)
same,IC50,[6],37 µM (active)
Cc1c(Cl)cccc1N1C(=O)c2ccccc2C1=O,IC50,[2],> 47.1 µM (inactive)
same,EC50,[3],> 53 µM (inactive)
CC1=C(SCc2ccccc2)C(=O)c2ccccc2C1=O,CC50,[1],> 40 µM (active)
same,IC50,[6],76.8 µM (active)
same,CC50,[17],34.6 µM (active)
O=C1C(=Cc2ccncc2)CCCc2ccccc21,IC50,[2],> 47.1 µM (inactive)
same,EC50,[3],> 53 µM (inactive)
